Patent US10051861B2, “N-arylamidine-substituted trifluoroethyl sulfide derivatives as acaricides and insecticides” (BAYER CROPSCIENCE AG, priority 2011, dated 2018)
Read-outs that look alike come from different tables or passages of the source. Marks after values point to notes of the source that are not given here.

Columns and labels:
[1] = test system: larvae of the mustard beetle (Phaedon cochleariae); test: Phaedon cochleariae spray test (PHAECO); conditions: for effect (beetle larvae killed): application rate 500 g/ha, after 7 days; for pest or weed control at 500 g/ha: Phaedon cochleariae, 168 h, read-out: effect (beetle larvae killed)
[2] = test system: greenhouse red spider mite (Tetranychus urticae); test: Tetranychus urticae spray test, OP-resistant (TETRUR), bean leaf disks; type: in vivo; conditions: for pest or weed control at 500 g/ha: Tetranychus urticae, foliar, 144 h, read-out: efficacy (spider mites killed)
Description: (§1) After 6 days, the effect in % is determined.

[3] = test system: greenhouse red spider mite (Tetranychus urticae); test: Tetranychus test, OP-resistant (TETRUR spray treatment); type: in vivo; conditions: application rate 500 g/ha, after 6 days
Description: as §1

[4] = logP by HPLC on reversed-phase columns (C 18), EEC Directive 79/831 Annex V.A8; type: physicochemical; conditions: for logP(HCOOH): pH 2.7; for logP(neutral): pH 7.8; for chromatographic logP: reversed-phase C18 HPLC column
Description: Calibration is carried out using unbranched alkan-2-ones (having from 3 to 16 carbon atoms) with known log P values (the log P values are determined by the retention times using linear interpolation between two successive alkanones).

[5] = test system: larvae of the mustard beetle (Phaedon cochleariae); test: Phaedon test (PHAECO spray treatment); conditions: application rate 500 g/ha, after 7 days
[6] = test system: cattle ticks (Boophilus microplus); test: Boophilus microplus injection test (BOOPMI Inj); type: in vivo; conditions: for pest or weed control at 0.02 mg: Rhipicephalus microplus, 168 h, read-out: efficacy (laying of fertile eggs)
Description: Solvent: dimethyl sulfoxide
1 μl of the active compound solution is injected into the abdomen of 5 engorged adult female cattle ticks (Boophilus microplus). The animals are transferred into dishes and kept in a climate-controlled room.
The activity is assessed after 7 days by laying of fertile eggs. Eggs whose fertility is not visible from the outside are stored in a climate-controlled cabinet until the larvae hatch after about 42 days. An efficacy of 100% means that none of the ticks has laid any fertile eggs; 0% means that all eggs are fertile.

[7] = application rate 500 g/ha, after 6 days
[8] = pH 2.7, [a] LC-MS, acidic range, pH 2.7, 0.1% aqueous formic acid/acetonitrile, read-out: logP(HCOOH)
[9] = application rate 20 μg/animal, injection, after 7 days

| SMILES | efficacy (spider mites killed) [2, 7] [%] | efficacy (spider mites killed) [3] [%] | logP(HCOOH) [4] | logP(neutral) [4] | pest or weed control at 500 g/ha [2, 7] [%] | pest or weed control at 0.02 mg [6, 9] [%] | also measured |
| --- | --- | --- | --- | --- | --- | --- | --- |
| CCCNC(=Nc1cc(SCC(F)(F)F)c(C)cc1F)C(F)(F)F [Ia-02] | 100 | 100 | 4.45 | 4.43 | – | – | effect (beetle larvae killed) [1]: 100%; efficacy (beetle larvae killed) [5]: 100% |
| Cc1cc(F)c(N=C(N)C(F)F)cc1SCC(F)(F)F [Ia-03] | 100 | 100 | – | – | – | – | log P ([4]; pH 2.3): 2.2^[c] |
| Cc1cc(F)c(N=C(NC(C)C)C(F)(F)F)cc1SCC(F)(F)F [Ia-05] | 100 | 100 | 4.51 | 4.52 | – | – | effect (beetle larvae killed) [1]: 100%; efficacy (beetle larvae killed) [5]: 100% |
| CNC(=Nc1cc(SCC(F)(F)F)c(F)cc1C)C(F)(F)F [Ia-09] | 80 | 80 | 3.72 | 3.69 | – | – | – |
| CNC(=Nc1cc(SCC(F)(F)F)c(C)cc1C)C(F)(F)F [Ia-12] | 100 | 100 | 3.95 | 4.01 | – | – | – |
| NC(=Nc1cc(SCC(F)(F)F)c(Cl)cc1Cl)C(F)(F)F [Ia-14] | 100 | – | – | – | – | – | effect (beetle larvae killed) [1]: 100%; efficacy (beetle larvae killed) [5]: 100% |
| CNC(=Nc1cc(SCC(F)(F)F)c(Cl)cc1Cl)C(F)(F)F [Ia-15] | 100 | 100 | 4.2^[a]; 4.2^[b] | 4.2^[a]; 4.2^[b] | – | – | effect (beetle larvae killed) [1]: 100%; efficacy (beetle larvae killed) [5]: 100% |
| Cc1cc(F)c(SCC(F)(F)F)cc1N=C(N)C(F)(F)F [Ia-17] | 80 | 80 | 3.16 | 3.14 | – | – | – |
| CNC(=Nc1ccc(C(F)(F)F)c(SCC(F)(F)F)c1)C(F)(F)F [Ia-19] | 100 | – | – | – | – | – | effect (beetle larvae killed) [1]: 100%; efficacy (beetle larvae killed) [5]: 100% |
| Cc1cc(C)c(SCC(F)(F)F)cc1N=C(N(C)C)C(F)(F)F [Ia-23] | 100 | 100 | 4.87^[a]; 4.87^[b] | 4.87^[a]; 4.87^[b] | – | – | – |
| Cc1cc(F)c(N=C(NC2CC2)C(F)(F)F)cc1SCC(F)(F)F [Ia-26] | 100 | 100 | 4.03 | 4.02 | – | – | – |
| Cc1cc(F)c(/N=C(\N)C2(F)CC2)cc1SCC(F)(F)F [Ia-27, 1-Fluoro-N′-{2-fluoro-4-methyl-5-[(2,2,2-trifluoroethyl)sulfanyl]phenyl}cyclopropanecarboximidamide] | – | – | – | – | – | – | pest or weed control at 500 g/ha [1]: 100%; pest or weed control at 500 g/ha [2]: 100%; pest or weed control at 0.02 mg [6]: 100%; chromatographic logP [4, 8]: 1.2 |
| Cc1cc(F)c(/N=C(\N)C(F)(F)Cl)cc1SCC(F)(F)F [Ia-115] | – | – | – | – | 100 | 100 | pest or weed control at 500 g/ha [1]: 100% |
| Cc1cc(F)c(/N=C(\N)C2(C#N)CC2)cc1SCC(F)(F)F [Ia-118] | – | – | – | – | 90 | 100 | pest or weed control at 500 g/ha [1]: 100% |
| Cc1cc(F)c(/N=C(\c2cccc(F)c2)N(C)C)cc1SCC(F)(F)F [Ia-120] | – | – | – | – | 100 | 100 | – |
| Cc1cc(F)c(N=C(NC(C)C)C(F)(F)F)cc1[S+]([O-])CC(F)(F)F (centres unmarked) [Ib-03] | 100 | 100 | – | – | – | – | efficacy (laying of fertile eggs) [6, 9]: 100% |
| CNC(=Nc1cc([S+]([O-])CC(F)(F)F)c(C)cc1C)C(F)(F)F (centres unmarked) [Ib-04] | 80 | 80 | 3.15 | 3.09 | – | – | – |
| CNC(=Nc1cc([S+]([O-])CC(F)(F)F)c(F)cc1C)C(F)(F)F (centres unmarked) [Ib-05] | 80 | 80 | 2.86 | 2.79 | – | – | – |
| CCCNC(=Nc1cc([S+]([O-])CC(F)(F)F)c(C)cc1F)C(F)(F)F (centres unmarked) [Ib-06] | 100 | 100 | 3.24 | 3.17 | – | – | – |
| CNC(=Nc1cc([S+]([O-])CC(F)(F)F)c(C)cc1F)C(F)(F)F (centres unmarked) [Ib-07] | 100 | 100 | 2.64 | 2.61 | – | – | efficacy (laying of fertile eggs) [6, 9]: 100% |
| Cc1cc(F)c(/N=C(/NC2CC2)C(F)(F)F)cc1[S+]([O-])CC(F)(F)F (centres unmarked) [Ib-08] | 100 | 100 | 2.68 | 2.67 | – | – | – |

| SMILES | efficacy (spider mites killed) [2, 7] [%] | efficacy (spider mites killed) [3] [%] | logP(HCOOH) [4] | logP(neutral) [4] | pest or weed control at 500 g/ha [2, 7] [%] | pest or weed control at 0.02 mg [6, 9] [%] | also measured |
| --- | --- | --- | --- | --- | --- | --- | --- |
| Cc1cc(C)c([S+]([O-])CC(F)(F)F)cc1N=C(N(C)C)C(F)(F)F (centres unmarked) [Ib-09] | 100 | 100 | 3.23 | 3.19 | – | – | – |
| Cc1cc(C)c([S+]([O-])CC(F)(F)F)cc1/N=C(/N)C(F)(F)F (centres unmarked) [Ib-12] | 100 | 100 | 3.36 | 3.3 | – | – | efficacy (laying of fertile eggs) [6, 9]: 100% |
| Cc1cc(F)c([S+]([O-])CC(F)(F)F)cc1/N=C(/N)C(F)(F)F (centres unmarked) [Ib-13] | 100 | 100 | – | – | – | – | – |
| Cc1cc(F)c([S+]([O-])CC(F)(F)F)cc1N=C(N(C)C)C(F)(F)F (centres unmarked) [Ib-15] | 100 | 100 | 2.17 | 2.14 | – | – | – |
| N/C(=N/c1cc([S@+]([O-])CC(F)(F)F)c(Cl)cc1Cl)C(F)(F)F [Ib-17] | – | – | – | – | 100 | 100 | pest or weed control at 500 g/ha [1]: 100% |
| N/C(=N/c1cc([S+]([O-])CC(F)(F)F)c(Br)cc1Br)C(F)(F)F (centres unmarked) [Ib-18] | – | – | – | – | 80 | 100 | pest or weed control at 500 g/ha [1]: 83% |
| Cc1cc(F)c(/N=C(\N)C2(F)CC2)cc1[S+]([O-])CC(F)(F)F (centres unmarked) [Ib-19, 1-Fluoro-N′-{2-fluoro-4-methyl-5-[(2,2,2-trifluoroethyl)sulfinyl]phenyl}cyclopropanecarboximidamide] | – | – | – | – | – | – | pest or weed control at 500 g/ha [2]: 100%; pest or weed control at 0.02 mg [6]: 100% |
| Cc1cc(F)c(/N=C2\CCCN2C)cc1[S+]([O-])CC(F)(F)F (centres unmarked) [Ib-20] | – | – | – | – | 100 | 100 | pest or weed control at 500 g/ha [1]: 100% |
| CN/C(=N/c1cc([S+]([O-])CC(F)(F)F)c(Br)cc1Br)C(F)(F)F (centres unmarked) [Ib-24] | – | – | – | – | 100 | 80 | – |
| Cc1cc(Cl)c(/N=C(\N)C(F)(F)C(F)(F)F)cc1[S+]([O-])CC(F)(F)F (centres unmarked) [Ib-35] | – | – | – | – | 100 | 100 | – |
| Cc1cc(F)c(/N=C(\N)C(F)(F)C(F)(F)Cl)cc1[S+]([O-])CC(F)(F)F (centres unmarked) [Ib-38] | – | – | – | – | 100 | 100 | – |
| Cc1cc(F)c(/N=C(\N)C(Cl)(Cl)Cl)cc1[S+]([O-])CC(F)(F)F (centres unmarked) [Ib-40] | – | – | – | – | 100 | 100 | – |
| Cc1cc(F)c(/N=C(/c2cccnc2)N(C)C)cc1[S+]([O-])CC(F)(F)F (centres unmarked) [Ib-47] | – | – | – | – | 100 | 100 | – |
| Cc1cc(F)c(/N=C(\N)c2ccc(Cl)nc2)cc1[S+]([O-])CC(F)(F)F (centres unmarked) [Ib-48] | – | – | – | – | 100 | 100 | – |
| CN/C(=N\c1cc([S+]([O-])CC(F)(F)F)c(C)cc1F)c1ccccn1 (centres unmarked) [Ib-58] | – | – | – | – | 100 | 100 | – |
| CN(C)/C(=N/c1cc([S+]([O-])CC(F)(F)F)c(Br)cc1F)C(F)(F)F (centres unmarked) [Ib-59] | – | – | – | – | 100 | 100 | – |
| Cc1cc(Cl)c(/N=C(/N)C(F)(F)F)cc1[S+]([O-])CC(F)(F)F (centres unmarked) [Ib-68] | – | – | – | – | 100 | 100 | pest or weed control at 500 g/ha [1]: 100% |
| Cc1cc(Cl)c([S+]([O-])CC(F)(F)F)cc1/N=C(\N)C(F)(F)F (centres unmarked) [Ib-85] | – | – | – | – | 100 | 100 | – |
| CN/C(=N\c1cc([S+]([O-])CC(F)(F)F)c(Cl)cc1Cl)c1ccc(Cl)nc1 (centres unmarked) [Ib-89] | – | – | – | – | 100 | 80 | – |
| N/C(=N/c1ccc(Cl)c([S+]([O-])CC(F)(F)F)c1)C(F)(F)F (centres unmarked) [Ib-108, N′-{4-Chloro-3-[(2,2,2-trifluoroethyl)sulfinyl]phenyl}-2,2,2-trifluoroethanimidamide] | – | – | – | – | 100 | 100 | pest or weed control at 500 g/ha [1]: 83%; chromatographic logP [4, 8]: 2.25; chromatographic logP ([4]; pH 7.8, [b] LC-MS, neutral range, pH 7.8, 0.001 molar aqueous ammonium bicarbonate/acetonitrile, read-out: logP(neutral)): 2.21 |
